What was measured:
Settings in all cases: 72 h
Caco-2 [1] = assay: cell viability relative to DMSO; higher = less toxic
Calu-3 [2] = assay: as above
HepG2 [3] = assay: as above
U2OS [4] = assay: as above
Vero E6 [5] = assay: as above
Caco-2 [6] = assay: relative viability EC50 (midpoint between 100% and the lowest measured viability); higher = less toxic
HepG2 [7] = assay: as above
U2OS [8] = assay: as above
Vero E6 [9] = assay: as above
Caco-2 [10] = assay: drug sensitivity score (DSS) for viability; higher = more toxic; extreme values may be limits of the assay
Calu-3 [11] = assay: as above
HepG2 [12] = assay: as above
U2OS [13] = assay: as above
Vero E6 [14] = assay: as above
Calu-3 [15] = assay: relative viability EC50 (midpoint between 100% and the lowest measured viability); higher = less toxic

Row | SMILES | cell viability (Caco-2 [1]; 1 nM) | cell viability (Caco-2 [1]; 10 nM) | cell viability (Caco-2 [1]; 100 nM) | cell viability (Caco-2 [1]; 1000 nM) | cell viability (Caco-2 [1]; 10000 nM) | cell viability (Calu-3 [2]; 1 nM) | cell viability (Calu-3 [2]; 10 nM) | cell viability (Calu-3 [2]; 100 nM) | cell viability (Calu-3 [2]; 1000 nM) | cell viability (Calu-3 [2]; 10000 nM) | cell viability (HepG2 [3]; 1 nM) | cell viability (HepG2 [3]; 10 nM) | cell viability (HepG2 [3]; 100 nM) | cell viability (HepG2 [3]; 1000 nM) | cell viability (HepG2 [3]; 10000 nM) | cell viability (U2OS [4]; 1 nM) | cell viability (U2OS [4]; 10 nM) | cell viability (U2OS [4]; 100 nM) | cell viability (U2OS [4]; 1000 nM) | cell viability (U2OS [4]; 10000 nM) | cell viability (Vero E6 [5]; 1 nM) | cell viability (Vero E6 [5]; 10 nM) | cell viability (Vero E6 [5]; 100 nM) | cell viability (Vero E6 [5]; 1000 nM) | cell viability (Vero E6 [5]; 10000 nM) | relative viability EC50 (Caco-2 [6]) | relative viability EC50 (HepG2 [7]) | relative viability EC50 (U2OS [8]) | relative viability EC50 (Vero E6 [9]) | drug sensitivity score (Caco-2 [10]) | drug sensitivity score (Calu-3 [11]) | drug sensitivity score (HepG2 [12]) | drug sensitivity score (U2OS [13]) | drug sensitivity score (Vero E6 [14]) | relative viability EC50 (Calu-3 [15])
1 | Oc1ccc2ccccc2c1Cc1c(O)ccc2ccccc12 [ST-1859] | 90.3% | 92.6% | 97.5% | 101% | 75.8% | 87.4% | 94.8% | 91.9% | 93.9% | 64.6% | 103% | 102% | 93.9% | 90.7% | 86.9% | 95.1% | 101% | 98.2% | 104% | 96.5% | 98.3% | 104% | 102% | 93% | 95.2% | > 10 µM | > 10 µM | > 10 µM | > 10 µM | 0.8 | 2.7 | 0.5 | 0 | 0 | 
2 | Nc1nnc(Sc2ncc([N+](=O)[O-])s2)s1 [SU3327] | 105% | 104% | 103% | 94.2% | 8.8% | 99.7% | 104% | 99.2% | 100% | 62.7% | 100% | 104% | 96.1% | 76.2% | 0% | 103% | 92.7% | 98% | 93.4% | 0.1% | 101% | 101% | 98.8% | 95.6% | 1.4% | 2.66 µM | 1.59 µM | 2.64 µM | 2.83 µM | 5.9 | 1.8 | 9.2 | 6.5 | 6.1 | 
3 | Cc1c(C(=O)N2CCOc3ccc(-c4ccc(N)nc4)cc3C2)ccc(S(C)(=O)=O)c1F [XL388] | 115% | 105% | 103% | 77.8% | 43% | 102% | 104% | 103% | 68.5% | 33.7% | 110% | 115% | 99.5% | 92.5% | 39% | 102% | 101% | 102% | 98.3% | 50.2% | 110% | 108% | 103% | 95.6% | 66.7% | 1.2 µM | 2.16 µM |  |  | 6.1 | 7.7 | 4.6 | 2.8 | 2.3 | 1.04 µM
4 | CC(C[N+](C)(C)C)OC(N)=O (stereo not drawn) [bethanechol] | 121% | 111% | 118% | 97.4% | 104% |  |  |  |  |  | 97.1% | 104% | 92.1% | 106% | 106% | 100% | 98.8% | 98.3% | 95.5% | 95.7% | 99.3% | 91.8% | 103% | 86.8% | 98.2% | > 10 µM | > 10 µM | > 10 µM | > 10 µM | 0 |  | 0 | 0 | 0 | 
5 | NS(=O)(=O)c1ccc(C(=O)O)cc1 [carzenide] | 106% | 96.1% | 112% | 106% | 96.9% | 106% | 101% | 93.4% | 100% | 94.2% | 97.6% | 99.8% | 102% | 102% | 94.9% |  |  |  |  |  |  |  |  |  |  | > 10 µM | > 10 µM |  |  | 0 | 0 | 0 |  |  | > 10 µM
6 | Cc1onc(-c2ccccc2Cl)c1C(=O)N[C@@H]1C(=O)N2[C@@H]1SC(C)(C)[C@@H]2C(=O)O [cloxacillin] | 102% | 99.7% | 98.5% | 109% | 95.8% |  |  |  |  |  | 107% | 116% | 104% | 90.8% | 109% |  |  |  |  |  | 94.5% | 97.6% | 99.7% | 98.2% | 106% | > 10 µM | > 10 µM |  | > 10 µM | 0 |  | 0 |  | 0 | 
7 | O=C(NO)c1ccc(O)c(O)c1 [didox] | 101% | 96.9% | 100% | 86.7% | 104% | 111% | 110% | 96.6% | 103% | 107% | 102% | 102% | 93.3% | 118% | 93.2% |  |  |  |  |  |  |  |  |  |  | > 10 µM | > 10 µM |  |  | 0 | 0 | 0 |  |  | > 10 µM
8 | CC[C@H](c1ccc(O)cc1)[C@@H](CC)c1ccc(O)cc1 [hexestrol] | 104% | 97.4% | 98.2% | 95% | 101% |  |  |  |  |  | 92.7% | 96.2% | 93.2% | 109% | 116% | 97.4% | 95.2% | 96.7% | 95.7% | 100% | 94% | 100% | 92.2% | 99% | 108% | > 10 µM | > 10 µM | > 10 µM | > 10 µM | 0 |  | 0 | 0 | 0 | 
9 | OCCOCCN1CCN(C(c2ccccc2)c2ccc(Cl)cc2)CC1 (stereo not drawn) [hydroxyzine] | 94.2% | 101% | 106% | 101% | 94% | 101% | 115% | 93.3% | 106% | 96.7% | 101% | 96.4% | 104% | 108% | 105% | 97.9% | 99.8% | 96.8% | 100% | 93.8% |  |  |  |  |  | > 10 µM | > 10 µM | > 10 µM |  | 0 | 0 | 0 | 0 |  | > 10 µM
10 | Cc1cc(C)c(S(=O)(=O)Nc2cccc(C(F)(F)F)c2)c(C)c1 [m-3M3FBS] | 111% | 98.8% | 108% | 98.2% | 106% | 94.5% | 102% | 95.8% | 98.9% | 99.4% | 101% | 98.9% | 93% | 88.8% | 90.6% | 101% | 97% | 100% | 103% | 100% |  |  |  |  |  | > 10 µM | > 10 µM | > 10 µM |  | 0 | 0 | 0.4 | 0 |  | > 10 µM
11 | NCc1ccc(S(N)(=O)=O)cc1 [mafenide] | 106% | 98.5% | 97.7% | 103% | 98.1% | 100% | 103% | 98.1% | 94.5% | 96.1% | 94.1% | 102% | 99.9% | 101% | 95.7% |  |  |  |  |  |  |  |  |  |  | > 10 µM | > 10 µM |  |  | 0 | 0 | 0 |  |  | > 10 µM
12 | Cc1ncc([N+](=O)[O-])n1CC(O)CN1CCOCC1 (stereo not drawn) [morinidazole] | 103% | 92% | 100% | 109% | 102% |  |  |  |  |  | 96.3% | 108% | 94.2% | 96.6% | 102% | 101% | 95.1% | 106% | 104% | 101% | 99.7% | 97.1% | 96.3% | 96.7% | 101% | > 10 µM | > 10 µM | > 10 µM | > 10 µM | 0 |  | 0 | 0 | 0 | 
13 | CN(C)CCC(c1ccccc1)c1ccccn1 (stereo not drawn) [pheniramine] | 98.1% | 96.6% | 93.6% | 91.6% | 101% | 105% | 95.3% | 99% | 94.7% | 102% | 96.4% | 99.8% | 102% | 103% | 101% | 99.9% | 98.8% | 102% | 97.6% | 109% | 91.4% | 57.3% | 101% | 77.9% | 79.5% | > 10 µM | > 10 µM | > 10 µM |  | 0 | 0 | 0 | 0 | 5.7 | > 10 µM
14 | C[C@@H](c1nc(-c2ccc(C#N)cc2)cs1)[C@](O)(Cn1cncn1)c1ccc(F)cc1F [ravuconazole] | 106% | 103% | 99.3% | 84% | 59.3% |  |  |  |  |  | 97.1% | 99.3% | 84.8% | 99.9% | 49.1% | 101% | 105% | 95.9% | 100% | 85.9% | 96.3% | 95.9% | 101% | 102% | 98.6% |  | 3.14 µM | > 10 µM | > 10 µM | 4.2 |  | 2.7 | 0.2 | 0 | 
15 | O=C(O)C(O)Cc1ccc(O)c(O)c1 (stereo not drawn) [sodium-danshensu] |  |  |  |  |  |  |  |  |  |  | 99.5% | 121% | 99.8% | 92% | 104% | 95% | 96.2% | 96.3% | 94.8% | 87.7% | 101% | 102% | 103% | 95.7% | 97.6% |  | > 10 µM | > 10 µM | > 10 µM |  |  | 0 | 0 | 0 | 
16 | CC(=O)Nc1ccc(C(=O)Nc2ccccc2N)cc1 [tacedinaline] | 97.3% | 95.2% | 93.4% | 99.9% | 52.7% | 101% | 99.8% | 97.1% | 74.5% | 42.3% | 104% | 85.5% | 98% | 74.4% | 40.8% | 99% | 103% | 95.1% | 90.7% | 43.1% | 99% | 104% | 97.9% | 92.8% | 54.7% |  | 1.15 µM | 1.91 µM |  | 2.5 | 6.1 | 6.3 | 4.6 | 3.5 | 1.14 µM
17 | C#CC1(OCC(O)CN2CCN(c3cccc(C(F)(F)F)c3)CC2)CCCCC1 (stereo not drawn) [terciprazine] | 102% | 92.2% | 101% | 86.1% | 87% |  |  |  |  |  | 96% | 110% | 110% | 91.1% | 90.9% | 100% | 98.6% | 99% | 96.8% | 95% | 106% | 93.6% | 104% | 99.4% | 87% | > 10 µM | > 10 µM | > 10 µM | > 10 µM | 1 |  | 0 | 0 | 0.1 | 
